Data published in ChEMBL document CHEMBL5113408, “Design, synthesis and antitumour activity of novel 5(6)-amino-benzimidazolequinones containing a fused morpholine” (Eur J Med Chem, 2022).
pIC50: −log10 of the molar value.

Tests used:
Type in all cases: functional, cell-based
[1] = test system: HeLa; assay: Antiproliferative activity against human HeLa cells assessed as inhibition of cell growth by SRB assay
[2] = test system: ECa-109 cell line; assay: Antiproliferative activity against human EC109 cells assessed as inhibition of cell growth by SRB assay
[3] = test system: MCF7; assay: Antiproliferative activity against human MCF7 cells assessed as inhibition of cell growth by SRB assay
[4] = test system: MGC-803; assay: Antiproliferative activity against human MGC-803 cells assessed as inhibition of cell growth by SRB assay

Row | Structure (SMILES) | pIC50 [1] | pIC50 [2] | pIC50 [3] | pIC50 [4]
1 | O=C1C=C(NC2CCCC2)C(=O)c2c1nc1n2[C@H]2OC[C@@H](O)[C@H]2OC1 | < 4.80 | < 4.80 | < 4.80 | < 5.10
2 | O=C1C(NC2CCCC2)=CC(=O)c2c1nc1n2[C@H]2OC[C@@H](O)[C@H]2OC1 | < 4.80 | < 4.80 | < 4.80 | < 4.80
3 | O=C1C(N2CCCC2)=CC(=O)c2c1nc1n2[C@H]2OC[C@@H](O)[C@H]2OC1 | < 4.80 | < 4.80 | < 4.80 | < 4.80
4 | O=C1C=C(Nc2ccc(I)cc2)C(=O)c2c1nc1n2[C@H]2OC[C@@H](O)[C@H]2OC1 | 5.39 | 5.64 | 5.65 | 5.85
5 | CCOc1ccccc1NC1=CC(=O)c2nc3n(c2C1=O)[C@H]1OC[C@@H](O)[C@H]1OC3 | 5.22 | 5.33 | < 5.40 | 5.61
6 | CCc1ccc(NC2=CC(=O)c3nc4n(c3C2=O)[C@H]2OC[C@@H](O)[C@H]2OC4)cc1 | 5.40 | 5.51 | 6.02 | 5.89
7 | COc1ccc(NC2=CC(=O)c3c(nc4n3[C@H]3OC[C@@H](O)[C@H]3OC4)C2=O)cc1 | < 5.10 | 5.47 | 5.35 | 5.67
8 | O=C1C=C(Nc2ccccc2)C(=O)c2c1nc1n2[C@H]2OC[C@@H](O)[C@H]2OC1 | 5.25 | 5.30 | < 5.40 | 5.76
9 | COc1cccc(NC2=CC(=O)c3nc4n(c3C2=O)[C@H]2OC[C@@H](O)[C@H]2OC4)c1 | 5.37 | 5.12 | < 5.40 | 5.75
10 | CN(C)C1=CC(=O)c2c(nc3n2[C@H]2OC[C@@H](O)[C@H]2OC3)C1=O | < 4.80 | – | < 4.80 | < 4.80
11 | Cc1ccc(NC2=CC(=O)c3c(nc4n3C[C@@H]([C@H](O)CO)OC4)C2=O)cc1C | 5.00 | < 4.80 | < 4.80 | 5.26
12 | O=C1C(Nc2cccc(F)c2)=CC(=O)c2c1nc1n2[C@H]2OC[C@@H](O)[C@H]2OC1 | < 5.10 | 5.63 | < 5.40 | 5.83
13 | COc1ccc(NC2=CC(=O)c3nc4n(c3C2=O)[C@H]2OC[C@@H](O)[C@H]2OC4)cc1 | 5.32 | < 5.40 | 5.27 | 5.77
14 | O=C1C=C(Nc2ccc(Br)cc2)C(=O)c2c1nc1n2C[C@@H]([C@H](O)CO)OC1 | 5.37 | 5.08 | 5.21 | 5.56
15 | O=C1C=C(NC2CCCCC2)C(=O)c2c1nc1n2[C@H]2OC[C@@H](O)[C@H]2OC1 | < 4.80 | < 4.80 | < 5.10 | < 5.10
16 | CCCN(CCC)C1=CC(=O)c2nc3n(c2C1=O)[C@H]1OC[C@@H](O)[C@H]1OC3 | < 4.80 | < 4.80 | < 4.80 | < 4.80
17 | O=C1C(NC2CC2)=CC(=O)c2c1nc1n2[C@H]2OC[C@@H](O)[C@H]2OC1 | < 4.80 | – | < 4.80 | < 5.40
18 | COc1ccccc1NC1=CC(=O)c2nc3n(c2C1=O)C[C@@H]([C@H](O)CO)OC3 | 5.19 | < 4.80 | < 4.80 | 5.18
19 | O=C1C(Nc2cccc(F)c2)=CC(=O)c2c1nc1n2C[C@@H]([C@H](O)CO)OC1 | < 4.80 | 5.18 | 5.23 | 5.52
20 | O=C1C(Nc2cccc(Cl)c2)=CC(=O)c2c1nc1n2C[C@@H]([C@H](O)CO)OC1 | 4.86 | 5.22 | 5.24 | 5.54
21 | Cc1ccc(NC2=CC(=O)c3nc4n(c3C2=O)C[C@@H]([C@H](O)CO)OC4)cc1 | 5.41 | 5.10 | 4.97 | 5.32
22 | CCCc1ccc(NC2=CC(=O)c3c(nc4n3[C@H]3OC[C@@H](O)[C@H]3OC4)C2=O)cc1 | 5.22 | < 5.40 | < 5.40 | 5.72
23 | O=C1C(Nc2cccc(Cl)c2)=CC(=O)c2c1nc1n2[C@H]2OC[C@@H](O)[C@H]2OC1 | 5.10 | 5.51 | 5.53 | 5.82
24 | O=C1C(Nc2ccccc2)=CC(=O)c2c1nc1n2[C@H]2OC[C@@H](O)[C@H]2OC1 | < 5.10 | 5.45 | < 5.40 | 5.74
25 | Cc1ccc(NC2=CC(=O)c3nc4n(c3C2=O)C[C@@H]([C@H](O)CO)OC4)cc1C | 5.35 | 5.17 | 5.20 | 5.59
26 | O=C1C=C(NC2CC2)C(=O)c2c1nc1n2C[C@@H]([C@H](O)CO)OC1 | < 4.80 | < 4.80 | < 4.80 | < 4.80

Row | Structure (SMILES) | pIC50 [1] | pIC50 [2] | pIC50 [3] | pIC50 [4]
27 | CCOc1ccc(NC2=CC(=O)c3nc4n(c3C2=O)[C@H]2OC[C@@H](O)[C@H]2OC4)cc1 | 5.51 | 5.49 | 5.84 | 5.95
28 | CCOc1ccc(NC2=CC(=O)c3nc4n(c3C2=O)C[C@@H]([C@H](O)CO)OC4)cc1 | 5.39 | 5.01 | 4.95 | 5.37
29 | O=C1C=C(Nc2cccc(Cl)c2)C(=O)c2c1nc1n2[C@H]2OC[C@@H](O)[C@H]2OC1 | 5.22 | 5.33 | 5.33 | 5.75
30 | O=C1C=C(Nc2ccc(C(F)(F)F)cc2)C(=O)c2c1nc1n2C[C@@H]([C@H](O)CO)OC1 | 5.22 | 5.17 | 4.95 | 5.19
31 | O=C1C(Nc2ccc(I)cc2)=CC(=O)c2c1nc1n2C[C@@H]([C@H](O)CO)OC1 | 5.26 | 5.50 | 5.29 | 5.61
32 | Cc1ccc(NC2=CC(=O)c3c(nc4n3C[C@@H]([C@H](O)CO)OC4)C2=O)cc1 | 5.23 | 5.29 | 5.13 | 5.39
33 | O=C1C(Nc2ccc(C(F)(F)F)cc2)=CC(=O)c2c1nc1n2C[C@@H]([C@H](O)CO)OC1 | 5.14 | 5.39 | 5.37 | 5.69
34 | CCOc1ccc(NC2=CC(=O)c3c(nc4n3C[C@@H]([C@H](O)CO)OC4)C2=O)cc1 | 5.13 | 5.11 | 5.06 | 5.46
35 | O=C1C=C(Nc2cccc(F)c2)C(=O)c2c1nc1n2[C@H]2OC[C@@H](O)[C@H]2OC1 | 5.19 | 5.15 | 5.26 | 5.66
36 | O=C1C(NCc2ccccc2)=CC(=O)c2c1nc1n2[C@H]2OC[C@@H](O)[C@H]2OC1 | 4.96 | < 5.10 | < 5.10 | 5.46
37 | O=C1C=C(Nc2ccc(I)cc2)C(=O)c2c1nc1n2C[C@@H]([C@H](O)CO)OC1 | 5.44 | 5.24 | 5.11 | 5.49
38 | O=C1C(NC2CC2)=CC(=O)c2c1nc1n2C[C@@H]([C@H](O)CO)OC1 | < 4.80 | < 4.80 | < 4.80 | < 4.80
39 | O=c1[nH]cc(F)c(=O)[nH]1 [FLUOROURACIL] | 4.61 | 4.94 | – | 4.99
40 | CCN(CC)C1=CC(=O)c2c(nc3n2[C@H]2OC[C@@H](O)[C@H]2OC3)C1=O | < 4.80 | – | < 4.80 | < 4.80
41 | COc1cccc(NC2=CC(=O)c3c(nc4n3C[C@@H]([C@H](O)CO)OC4)C2=O)c1 | 5.21 | 5.16 | 5.18 | 5.45
42 | CCCc1ccc(NC2=CC(=O)c3nc4n(c3C2=O)C[C@@H]([C@H](O)CO)OC4)cc1 | 5.48 | 5.16 | 5.23 | 5.44
43 | O=C1C=C(N2CCCC2)C(=O)c2c1nc1n2[C@H]2OC[C@@H](O)[C@H]2OC1 | < 4.80 | < 4.80 | < 4.80 | < 4.80
44 | O=C1C(Nc2ccc(Br)cc2)=CC(=O)c2c1nc1n2[C@H]2OC[C@@H](O)[C@H]2OC1 | 5.28 | 5.70 | 5.36 | 5.69
45 | O=C1C=C(Nc2cccc(Cl)c2)C(=O)c2c1nc1n2C[C@@H]([C@H](O)CO)OC1 | 5.39 | 4.95 | 5.03 | 5.28
46 | O=C1C=C(Nc2ccccc2)C(=O)c2c1nc1n2C[C@@H]([C@H](O)CO)OC1 | 5.22 | < 4.80 | < 4.80 | 5.09
47 | O=C1C=C(N2CCCCC2)C(=O)c2c1nc1n2[C@H]2OC[C@@H](O)[C@H]2OC1 | < 4.80 | < 5.10 | < 5.10 | < 5.10
48 | Cc1ccc(NC2=CC(=O)c3nc4n(c3C2=O)[C@H]2OC[C@@H](O)[C@H]2OC4)cc1 | 5.41 | 5.46 | 5.78 | 5.85
49 | O=C1C(Nc2ccc(C(F)(F)F)cc2)=CC(=O)c2c1nc1n2[C@H]2OC[C@@H](O)[C@H]2OC1 | 5.05 | 5.65 | < 5.40 | 5.73
50 | O=C1C(Nc2ccccc2)=CC(=O)c2c1nc1n2C[C@@H]([C@H](O)CO)OC1 | 5.05 | 5.08 | 5.16 | 5.33
51 | Cc1ccc(NC2=CC(=O)c3c(nc4n3[C@H]3OC[C@@H](O)[C@H]3OC4)C2=O)cc1C | 5.36 | 5.39 | 5.31 | 5.98
52 | O=C1C(N2CCOCC2)=CC(=O)c2c1nc1n2[C@H]2OC[C@@H](O)[C@H]2OC1 | < 4.80 | – | < 4.80 | < 5.40
